Test results from patent EP3354264A1, “PROPHYLAXIS AND TREATMENT OF NEISSERIA GONORRHOEAE EYE INFECTION” (Kingston University Higher Education Corporation, priority 2017, dated 2018).
≈ marks a conversion by molar mass, not a printed value. Where two headings read alike, the source gives them in different places.

Columns and labels:
[1] = test system: Neisseria gonorrhoeae strain NCCP11945; assay: Growth inhibition screen of organic acids; assay type: cell-based; conditions: strain NCCP11945, in vitro, 1 mM
Description: (§1) The well characterised N. gonorrhoeae strain NCCP11945 (Chung GT et al. (2008) Complete genome sequence of Neisseria gonorrhoeae NCCP11945. Journal of Bacteriology 190: 6035-6036) was used in the screening stage of this experiment. Eight isolates that were obtained from Public Health England from various European locations were used in the log reduction assays. All isolates were first cultured for 24 hours prior to testing by plating on GC solid medium (Oxoid Limited, Hampshire, UK) with Kellogg supplements and incubating at 37 °C, 5% CO2 (Kellogg DS, Jr., et al., (1963), J Bacteriol 85: 1274-1279).
(§2) A full list of all the organic acids tested in this study is in Table 1. The tested compounds include saturated and unsaturated fatty acids, monoglycerides, dicarboxylic acids, and fatty acid sodium salts. All compounds investigated were resuspended at a concentration of 100 mM in ethanol unless stated. All chemicals were obtained from Sigma-Aldrich (Poole, Dorset, UK).
Other organic acids were also active at this concentration, as noted in Table 1.

[2] = test system: Neisseria gonorrhoeae strain NCCP11945; assay: Measurement of bactericidal action (log reduction); assay type: cell-based; conditions: for log reduction at 1000 µM: Neisseria gonorrhoeae
Description: as §1, §2
(§3) Log reductions were done using the same method as in Bergsson et al., (1999), Antimicrob Agents Chemother 43: 2790-2792. Briefly, cells were suspended in GC broth (18 g/L GC Base (Oxiod, Limited) with added defined supplements) to an optical density of 0.3 at 520 nm which is approximately equivalent to 107 - 108 cells per millilitre (Macfarlane DE et al. (1980) Improved media for the culture of Neisseria gonorrhoeae. J Med Microbiol 13: 597-607). Five hundred microliters of the suspension was then added to 5 µl of the 100 mM stocks to give a final concentration of 1 mM. A negative control was also done to calculate the reduction in bacterial titre by adding 500 µl to 5 µl ethanol. The tubes were then mixed at room temperature for two minutes and immediately diluted in a 10 fold dilution series down to 10-4. The dilutions were plated by spreading 10 µl on a quarter of a plate and 100 µl of the neat solution was also plated. Plates were incubated at 37 °C for 48 hours. All samples were plated in duplicate. A reduction in viable cell count by more than 4 log10 was deemed to be bactericidal and was selected for further investigation. Bactericidal compounds were then tested at concentrations of 0.75, 0.5, and 0.25 mM (0.125 mM was also used in some potent compounds) to find the minimum bactericidal concentration. Additional testing at lower concentrations was also done on the eight clinical isolates of European origin.

[3] = test system: panel of nine N. gonorrhoeae isolates (strain NCCP11945 and eight isolates from Public Health England); assay: Minimum bactericidal concentration by log reduction, panel of isolates; assay type: cell-based; conditions: Neisseria gonorrhoeae, 2 min; lowest concentration tested giving an average 4 log10 reduction after two minute exposure; nine isolates; read-out: Minimum bactericidal concentration
Description: as §1, §3
As shown by the results in Table 3 which presents data on the log reductions of bacterial cell counts, against a panel of nine N. gonorrhoeae isolates (strain NCCP11945 and eight isolates from Public Health England), myristoleic acid (C14:1cΔ9), palmitoleic acid (C16:1cΔ9), linolenic acid (C18:3cΔ9,12,15), and monocaprin (C10) have a minimal bactericidal concentration, defined as the lowest concentration tested to give an average 4 log10 reduction in bacterial count after a two minute exposure, of 0.5 mM. Against a panel of nine N. gonorrhoeae isolates, lauric acid (C12:0), tridecanoic acid (C13:0), and sodium dodecanoate have a minimal bactericidal concentration of 0.75 mM.

[4] = in vitro; assay type: cell-based, bovine; conditions: red blood cells, bovine RBCs, shaken 1 hour at room temperature
Description: (§4) Whole bovine blood was obtained from a local slaughter house (ABP, Guildford, Surrey, UK), adding 90 ml blood to 10 ml of 110 mM tri-sodium citrate anticoagulant. RBCs were isolated the same day. The RBCs were washed by three repeats of centrifugation (1,500 x g for 10 minutes) and resuspension in PBSG. Testing was done following European Union Reference Laboratory for alternatives to animal testing (EURL-ECVAM) guidelines (Lewis RW (2010) DB-ALM Protocol No. 99: Red blood cell (RBC) Test System. EURL ECVAM). The organic acids were made up in DMSO and diluted to a DMSO concentration maximum of 10 % (v/v). Samples were shaken at room temperature for 1 hour and then centrifuged at 10,000 rpm for 2 minutes. An aliquot of 750 µl of the supernatant was taken and absorbance at […] tested.

[5] = test system: Neisseria gonorrhoeae strain NCCP11945; assay: Log reduction in artificial tear fluid; assay type: cell-based; conditions: artificial tear fluid containing calcium chloride; two minute exposure; Figure 8
Description: Artificial tear fluid was made as in Mirejovsky et al., Optometry and Vision Science, (1991), 68: 858-864. […] Neisseria gonorrhoeae strain NCCP11945 was used in these experiments. As the previous log reductions, […] were suspended in GC broth. The cell suspension was centrifuged to remove the culture medium and the bacteria resuspended in the tear fluid. This was then added to the concentrated organic acid candidates. The cells were then counted again after two minute exposure to estimate any reduction due to the exposure to the fatty acid.
In a first experiment, the artificial tear fluid formulation includes calcium chloride to mimic the calcium in natural tears. As shown by the results in Figure 8, the anti-gonococcal properties of myristoleic acid (C14:1cΔ9), palmitoleic acid (C16:1cΔ9), linolenic acid (C18:3cΔ9,12,15), and monocaprin(C10) are retained in the artificial tear fluid formulation containing calcium chloride.
In a second experiment, calcium chloride was omitted from the artificial tear fluid formulation. The results in Figure 9 indicate that the anti-gonococcal properties of lauric acid (C12:0), tridecanoic acid (C13:0), and sodium dodecanoate were retained in the artificial tear fluid formulation without.

[6] = test system: RBCs; assay: in vitro; assay type: cell-based, bovine; conditions: at their minimum bactericidal concentration
Description: as §4

[7] = 2 min, strain NCCP11945, 1 mM, 2 minutes, read-out: Log reduction of Neisseria gonorrhoeae
[8] = NCCP11945, 2 min, read-out: Log reduction of Neisseria gonorrhoeae, strain NCCP11945, 1 mM, 2 minutes
[9] = strain NCCP11945, 1 mM, 2 minutes

SMILES: CCCCCCCC(=O)OCC(O)CO (racemic) [1-Octanoyl-rac-Glycerol C8, 1-Octanoyl-rac-Glycerol]
- Inhibits growth of Neisseria gonorrhoeae [1]: Yes

SMILES: O=C(O)CCCCC(=O)O [Adipic acid]
- Inhibits growth of Neisseria gonorrhoeae [1]: No

SMILES: CCCCC/C=C\C/C=C\C/C=C\C/C=C\CCCC(=O)O [Arachidonic acid 20:4 cΔ5,8,11,14, Arachidonic acid]
- Inhibits growth of Neisseria gonorrhoeae [1]: Yes

SMILES: O=C(O)CCCCCCCC(=O)O [Azelaic acid]
- Inhibits growth of Neisseria gonorrhoeae [1]: No

SMILES: CCCCCCCCCC(=O)O [Capric acid/Decanoic acid 10:0, Decanoic acid]
- Inhibits growth of Neisseria gonorrhoeae [1]: No

SMILES: CCCCCCCC(=O)O [Caprylic/Octanoic acid 8:0, Octanoic acid]
- Inhibits growth of Neisseria gonorrhoeae [1]: No

SMILES: CCCCCC/C=C\CCCCCCCCCC(=O)O [Cis-Vaccenic acid 18:1 cAll, Cis-Vaccenic acid]
- Inhibits growth of Neisseria gonorrhoeae [1]: No

SMILES: CCCCCCCC/C=C/CCCCCCCC(=O)O [Elaidic acid 18:1 tΔ9, Elaidic acid]
- Inhibits growth of Neisseria gonorrhoeae [1]: Yes
- log reduction at 1000 µM [2, 7]: 0.5

SMILES: CCCCCCCC/C=C\CCCCCCCCCCCC(=O)O [Erucic acid 22:1 cΔ13, Erucic acid]
- Inhibits growth of Neisseria gonorrhoeae [1]: Yes
- log reduction at 1000 µM [2, 8]: 0

SMILES: CCCCCCCCCCCCCCCCC(=O)O [Heptadecylic acid 17:0, Heptadecylic acid]
- Inhibits growth of Neisseria gonorrhoeae [1]: No

SMILES: CCCCCCCCCCCCCC(=O)OC(C)C [Isopropyl myristate]
- Inhibits growth of Neisseria gonorrhoeae [1]: No

SMILES: CCCCCCCCCCCCCCCC(=O)OC(C)C [Isopropyl palmitate]
- Inhibits growth of Neisseria gonorrhoeae [1]: No

SMILES: CCCCC/C=C\C/C=C\CCCCCCCC(=O)O [Linoleic acid 18:2 cΔ9,12, Linoleic acid]
- Inhibits growth of Neisseria gonorrhoeae [1]: Yes
- log reduction at 1000 µM [2, 7]: 1.6

SMILES: CC/C=C\C/C=C\C/C=C\CCCCCCCC(=O)O [Linolenic acid 18:3 cΔ9,12,15, α-linolenic acid]
- Inhibits growth of Neisseria gonorrhoeae [1]: Yes
- Inhibits growth of Neisseria gonorrhoeae ([1]; listed as linolenic acid): able to inhibit growth
- log reduction at 1000 µM [2, 7]: > 6
- Log reduction of Neisseria gonorrhoeae [2, 9]: able to cause a log reduction
- MBC [3]: 500 µM (≈ 139 µg/mL)
- HC50 at 1 h ([4]; read-out: H50): 70 to 140 µM
- HC50 at 1 h ([4]; read-out: H50 (mg/L)): 20 to 40 mg/L
- anti-gonococcal properties in artificial tear fluid [5]: retained

SMILES: CCCCCCCCCCCC(=O)OCC(O)CO (centres unmarked) [Monolaurin C12, Monolaurin]
- Inhibits growth of Neisseria gonorrhoeae [1]: Yes
- log reduction at 1000 µM [2, 8]: 3.4

SMILES: CCCCCCCCCCCCCC(=O)OCC(O)CO (centres unmarked) [Monomyristin C14, Monomyristin]
- Inhibits growth of Neisseria gonorrhoeae [1]: Yes
- log reduction at 1000 µM [2, 8]: 0.6

SMILES: CCCCCCCCCCCCCC(=O)O [Myristic acid 14:0, Myristic acid]
- Inhibits growth of Neisseria gonorrhoeae [1]: Yes
- Log reduction of Neisseria gonorrhoeae [2, 9]: 1.5

SMILES: CCCC/C=C\CCCCCCCC(=O)O [Myristoleic acid 14:1 cΔ9, (Z)-tetradec-9-enoic acid]
- Inhibits growth of Neisseria gonorrhoeae [1]: Yes
- Inhibits growth of Neisseria gonorrhoeae ([1]; listed as myristoleic acid): able to inhibit growth
- log reduction at 1000 µM [2, 7]: > 6
- Log reduction of Neisseria gonorrhoeae [2, 9]: able to cause a log reduction
- MBC [3]: 500 µM (≈ 113 µg/mL)
- HC50 at 1 h ([4]; read-out: H50): 2600 to 3500 µM
- HC50 at 1 h ([4]; read-out: H50 (mg/L)): 600 to 800 mg/L
- RBC lysis assay prediction of irritation [6]: not irritating
- anti-gonococcal properties in artificial tear fluid [5]: retained

SMILES: CCCCCCCC/C=C\CCCCCCCC(=O)O [Oleic acid 18:1 cΔ9, Oleic acid]
- Inhibits growth of Neisseria gonorrhoeae [1]: Yes
- log reduction at 1000 µM [2, 7]: 1

SMILES: CCCCCCCCCCCCCCCC(=O)O [Palmitic acid 16:0, Palmitic acid]
- Inhibits growth of Neisseria gonorrhoeae [1]: No

SMILES: CCCCCC/C=C\CCCCCCCC(=O)O [Palmitoleic acid 16:1 cΔ9, (9Z)-hexadec-9-enoic acid]
- Inhibits growth of Neisseria gonorrhoeae [1]: Yes
- Inhibits growth of Neisseria gonorrhoeae ([1]; listed as palmitoleic acid): able to inhibit growth
- log reduction at 1000 µM [2, 7]: > 6
- Log reduction of Neisseria gonorrhoeae [2, 9]: able to cause a log reduction
- MBC [3]: 500 µM (≈ 127 µg/mL)
- HC50 at 1 h ([4]; read-out: H50): 80 to 160 µM
- HC50 at 1 h ([4]; read-out: H50 (mg/L)): 20 to 40 mg/L
- anti-gonococcal properties in artificial tear fluid [5]: retained

SMILES: CCCCCCCCCCCCCCC(=O)O [Pentadecylic acid 15:0, Pentadecylic acid]
- Inhibits growth of Neisseria gonorrhoeae [1]: Yes
- log reduction at 1000 µM [2, 7]: 0.5

SMILES: O=C(O)CCCCCC(=O)O [Pimelic acid]
- Inhibits growth of Neisseria gonorrhoeae [1]: No

SMILES: CCCCCC[C@@H](O)C/C=C\CCCCCCCC(=O)O [Ricinoleic acid]
- Inhibits growth of Neisseria gonorrhoeae [1]: Yes
- log reduction at 1000 µM [2, 7]: 3.5

SMILES: O=C(O)CCCCCCCCC(=O)O [Sebacic acid]
- Inhibits growth of Neisseria gonorrhoeae [1]: No

SMILES: CCCCCCCCCCCCCC(=O)[O-].[Na+] [Sodium myristate]
- Inhibits growth of Neisseria gonorrhoeae [1]: Yes
- Log reduction of Neisseria gonorrhoeae [2, 9]: 0.5

SMILES: C/C=C/C=C/C(=O)O [Sorbic acid 6:2 tΔ2,4, Sorbic acid]
- Inhibits growth of Neisseria gonorrhoeae [1]: No

SMILES: CCCCCCCCCCCCCCCCCC(=O)O [Stearic acid 18:0, Stearic acid]
- Inhibits growth of Neisseria gonorrhoeae [1]: No

SMILES: O=C(O)CCCCCCC(=O)O [Suberic acid]
- Inhibits growth of Neisseria gonorrhoeae [1]: No

SMILES: O=C(O)CCC(=O)O [Succinic acid]
- Inhibits growth of Neisseria gonorrhoeae [1]: No

SMILES: CCCCCCCCCCC(=O)O [Undecanoic acid 11:0, Undecanoic acid]
- Inhibits growth of Neisseria gonorrhoeae [1]: Yes
- log reduction at 1000 µM [2, 7]: 0.2

SMILES: CCCCCC/C=C/CCCCCCCCCC(=O)O [trans-Vaccenic acid 18:1 tΔ11, trans-Vaccenic acid]
- Inhibits growth of Neisseria gonorrhoeae [1]: No
